# Source: patent US12268747B2, “Polypeptides having anti-senescent effects and uses thereof” (OneSkin, Inc., priority 2019, dated 2025)
# Peptide text beside a SMILES is read from it.
# Experiments:
# [1] = tested on: Primary fibroblasts from Progeria patients; experiment: Polypeptide library screen: SA-B-galactosidase senescence and cell number in Progeria fibroblasts; assay type: cell-based, human; settings: 10 μM, 48 hours
# Description: Primary fibroblasts isolated from Progeria patients can constitute a genetic model of early aging and cellular senescence in humans. Primary fibroblasts from Progeria patients were cultured in DMEM (Dulbecco's Modified Eagle's Medium) supplemented with 10% v.v. fetal bovine serum (FBS), and 1% v.v. of penicillin/streptomycin solution (1,000 U·mL−1). Cells were kept in a 5% CO2, 37° C. and 95% humidity atmosphere. After expansion, these cells were seeded in 96-well plates (1,000 cells per well) and, 6 hours after plating, were incubated with individual polypeptides from a proprietary library at 50 μM for 48 hours. Negative control comprised untreated cells, which received vehicle only; positive control group comprised cells incubated with 10 μM ABT-263, a senolytic compound for the same period. […] Three independent experiments including three technical replicates were performed.
# [2] = tested on: Primary fibroblasts isolated from 3 healthy chronologically aged patients; experiment: SA-B-galactosidase senescence in fibroblasts of aged donors, concentration series; assay type: cell-based, human; settings: 1.56-50 μM (Peptide 16: 1.56-25 μM), 48 hours; in at least one of the tested concentrations
# Description: Primary fibroblasts isolated from 3 healthy chronologically aged patients were used. Cells were cultured in DMEM (Dulbecco's Modified Eagle's Medium) supplemented with 10% v.v. fetal bovine serum (FBS), and 1% v.v. of penicillin/streptomycin solution (1,000 U·mL−1). Cells were kept in a 5% CO2, 37° C. and 95% humidity atmosphere. After expansion, these cells were seeded in 96-well plates (4,000 cells per well) and, 6 hours after plating the cells were treated with one of 4 senotherapeutic polypeptides (Peptide 14, Peptide 13, Peptide 15, and Peptide 16) and incubated for 48 hours. Each polypeptide was tested at 6 different concentrations: 50 μM, 25 μM, 12.5 μM, 6.25 μM, 3.12 μM, and 1.56 μM, except for Peptide 16, which was tested at 5 different concentrations: 25 μM, 12.5 μM, 6.25 μM, 3.12 μM, and 1.56 μM. A negative control comprised untreated cells, which received vehicle only. After incubation, relative cellular senescence (assessed by the activity of senescence associated B-galactosidase staining relative to untreated control) was analyzed (FIG. 2, panels A-D), in which the Y axis indicates the relative senescence levels normalized to untreated control. Each column corresponds to a different concentration of a polypeptide. Three independent experiments (biological replicates) including three technical replicates were performed. Data was analyzed using Analysis of Variance (ANOVA) and a Bonferroni post-hoc tests. Statistical significance was determined as p values equal or lower than 0.05.
# [3] = tested on: Primary fibroblasts from Progeria patients; experiment: Senescence (SA-β-galactosidase, ATRX foci) in Progeria fibroblasts, short sequences; assay type: cell-based, human; settings: 500 nM, 5 μM, 50 μM
# Description: Skin cells from Progeria patients were used as a model of aging because of the high levels of cellular senescence. Primary fibroblasts from Progeria patients were cultured in DMEM (Dulbecco's Modified Eagle's Medium) supplemented with 10% v.v. fetal bovine serum (FBS), and 1% v.v. of penicillin/streptomycin solution (1,000 U·mL−1). Cells cultured at 5% CO2, 37° C. and 95% humidity atmosphere. After expansion, the cells were seeded in 96-well plates (4,000 cells per well) and, 6 hours after plating, were incubated with 500 nM, 5 μM or 50 μM of polypeptide sequence LKGIL (SEQ ID NO: 6) or WLKGI (SEQ ID NO: 7). Negative control comprised untreated cells, which received vehicle only. After incubation, relative cellular senescence, which was assessed by the activity of senescence associated β-galactosidase staining relative to untreated control and by the quantification of ATRX foci/nuclei, was analyzed. Three independent experiments (biological replicates) including three technical replicates were performed. Data was analyzed using ANOVA and a Bonferroni post-hoc test. Statistical significance was determined as p values equal or lower than 0.05, where *p<0.05 and ** p<0.01.
# MeWo cells [4] = experiment: Melanin content of MeWo cells, 7 days treatment; assay type: cell-based, human; settings: 7 days after 14 day IBMX pre-treatment; Peptide 14 3.12 μM or retinoic acid 2 μM with 25 μM IBMX; positive control 25 μM IBMX
# Description: (§1) To test whether Peptide 14 promotes depigmentation of melanocytes, MeWo cells were cultured in DMEM supplemented with 10% v/v FBS and 1% v/v of penicillin/streptomycin solution (1,000 U·mL^−1) at 5% CO2, 37° C. and 95% humidity. For two weeks prior to treatment with one of the experimental conditions (pre-treatment), the MeWo cells were cultured with isobutyl methylxanthine (IBMX) to stimulate melanin synthesis. After the MeWo cells were seeded in 6-well plates at 1,000,000 cells per well for 6 hours, the cells were incubated with one of the experimental conditions for 7 days and analyzed for intracellular and supernatant melanin content.
# The experimental conditions included a positive control group, a negative control group, a Peptide 14 (IBMX) 7d group, and a retinoic acid (IBMX) 7d group. […]
# (§2) After treatment, the melanin content in the cell pellet and the cell culture supernatant was assessed by the absorbance of the samples at 492 nm. […] Data are presented as relative melanin content, absorbance of the samples at a specified wavelength (492 nm) normalized to the absorbance of the negative control samples also as the same wavelength. […] The data were analyzed using ANOVA and Bonferroni post-hoc test when a statistical significance was detected. […]
# MeWo cells [5] = experiment: Melanin content of MeWo cells, 14 days or interrupted on 7th day; assay type: cell-based, human
# Description: as §1, with “The skin frequently may experience rebound hyperpigmentation, where pigmentation is reestablished in the skin after the discontinuation of the lightening treatment(s). To” for “To”, “whether the depigmentation effect of” for “whether”, “14 remained after the Peptide 14 treatment was discontinued,” for “14 promotes depigmentation of melanocytes,”, “for 14” for “for 7”
# The experimental conditions included a positive control group, a negative control group, a Peptide 14 (IBMX) 14 days group, a retinoic acid (IBMX) 14 days group, a Peptide 14 (IBMX) interrupted on 7th day group, and a retinoic acid (IBMX) interrupted on 7th day group. The negative control group comprised MeWo cells which were stimulated with 25 μM IBMX for 2 weeks in the pre-treatment period and then were untreated for 14 days, receiving the vehicle only, after being plated for the experiment. The positive control group comprised MeWo cells that were incubated with 25 μM IBMX during the entire experiment, for 2 weeks in the pre-treatment period and for 14 days in the treatment period. Some of the groups were treated with both IBMX 25 μM for 7 or 14 days, as well as 3.12 μM Peptide 14, or both IBMX 25 μM (for 7 or 14 days), as well as retinoic acid 2 μM. The Peptide 14 (IBMX) 14 day group comprised MeWo cells that were incubated with 25 μM IBMX 2 weeks in the pre-treatment period and then treated for 14 days with 25 μM IBMX and 3.12 μM Peptide 14. The retinoic acid (IBMX) 14 day group comprised MeWo cells that were incubated with 25 μM IBMX 2 weeks in the pre-treatment period and then treated for 14 days with 25 μM IBMX and 2 μM retinoic acid. […]
# as §2, with “to the […] absorbance of” for “to the absorbance of”
# [6] = tested on: human primary fibroblasts isolated from 3 healthy donors, etoposide-stressed; experiment: Etoposide-induced senescence in fibroblasts; assay type: cell-based; settings: etoposide 20 μM, 24 hours
# Description: Cellular senescence may be caused by several different stimuli. In order to assess whether Peptide 14 was effective against UVB-induced and chemically-induced senescence, human primary fibroblasts isolated from 3 healthy donors were used. These cells were cultured in DMEM (Dulbecco's Modified Eagle's Medium) supplemented with 10% v.v. fetal bovine serum (FBS), and 1% v.v. of penicillin/streptomycin solution (1,000 U·mL−1). Cells were kept in a 5% CO2, 37° C. and 95% humidity atmosphere. After expansion, these cells were seeded in 96-well plates (4,000 cells per well) and, 6 hours after plating, were submitted to either etoposide (20 μM) treatment for 24 hours, or exposed twice to 0.05 J/cm^2 of UVB radiation. […] After incubation, relative cellular senescence (assessed by the activity of senescence associated β-galactosidase staining relative to untreated control) was analyzed and plotted in column graphs. ATRX foci were also assessed following ATRX immunofluorescence staining. Graphs were built using the average ATRX foci detected per nuclei. […] Data was analyzed using with either t-test or ANOVA followed by a Bonferroni post-hoc test. Statistical significance was determined as p-values equal or lower than 0.05 (FIG. 6).
# [7] = 7 day treatment, then 7 days 25 μM IBMX only
molecule,measurement,setting,value
CC1(C)CCC(c2ccc(Cl)cc2)=C(CN2CCN(c3ccc(C(=O)NS(=O)(=O)c4ccc(N[C@H](CCN5CCOCC5)CSc5ccccc5)c(S(=O)(=O)C(F)(F)F)c4)cc3)CC2)C1 [ABT-263],cellular toxicity (cell number),[1],cellular toxicity
same,cellular senescence (SA-B-galactosidase staining),[1]; positive control,significant reduction
WLKGILREAA [Peptide 16],relative cellular senescence (SA-B-galactosidase staining) vs untreated control,[2],senotherapeutic effects
KLKGILRGAA [Peptide 15],relative cellular senescence (SA-B-galactosidase staining) vs untreated control,[2],senotherapeutic effects
CC[C@H](C)[C@H](NC(=O)CNC(=O)[C@H](CCCCN)NC(=O)[C@@H](N)CC(C)C)C(=O)N[C@@H](CC(C)C)C(=O)O [LKGIL] (H-LKGIL-OH; N-terminus and C-terminus assumed),cellular toxicity (relative cell number),[3],No cellular toxicity
CC1=C(/C=C/C(C)=C/C=C/C(C)=C/C(=O)O)C(C)(C)CCC1 [retinoic acid],"relative melanin content, cell pellet",MeWo cells [4],about 125 % of the negative control group
same,"relative melanin content, cell culture supernatant",MeWo cells [5]; [7],about 100%
same,"relative melanin content, cell pellet",MeWo cells [5]; [7],about 90%
same,"relative melanin content, cell pellet","MeWo cells [5]; 14 day treatment, Peptide 14 3.12 μM or retinoic acid 2 μM with 25 μM IBMX, positive control 25 μM IBMX, normalized to cell number and negative control",about 130%
same,"relative melanin content, cell culture supernatant","MeWo cells [5]; 14 day treatment, positive control 25 μM IBMX",about 50%
CC[C@H](C)[C@H](NC(=O)CNC(=O)[C@H](CCCCN)NC(=O)[C@H](CC(C)C)NC(=O)[C@@H](N)Cc1c[nH]c2ccccc12)C(=O)O [WLKGI] (H-WLKGI-OH; N-terminus and C-terminus assumed),cellular toxicity (relative cell number),[3],No cellular toxicity
"COc1cc([C@@H]2c3cc4c(cc3[C@@H](O[C@@H]3O[C@@H]5CO[C@@H](C)O[C@H]5[C@H](O)[C@H]3O)[C@H]3COC(=O)[C@H]23)OCO4)cc(OC)c1O [Etoposide, etoposide]",ATRX foci nuclear accumulation (average ATRX foci/cell),[6],significant increase
same,cellular senescence level,[6],significant increase
